Measured values reported in PMC10046946, “Novel Phthalic-Based Anticancer Tyrosine Kinase Inhibitors: Design, Synthesis and Biological Activity” (Current Issues in Molecular Biology, 2023).

What was measured:
[1] = system: K562 (chronic myelogenous leukemia); test: MTT cell proliferation assay, K562; assay type: cell-based; conditions: Homo sapiens, K562, 72 h of exposition, read-out: Anti-proliferative activity IC50, K562
Experimental: (§1) Tests to determine the effects of the synthesized compounds on cell viability and the half-maximal inhibitory concentration (IC50) were performed using the MTT assay, as described in our prior work.
(§2) The target compounds 5, 6, 8–12, 14, 15, 17–22 and 24–26 were tested for antiproliferative activity against six cancer cell lines: K562 (chronic myelogenous leukemia), HL-60 (promyelocytic leukemia), MCF-7 (breast adenocarcinoma), HepG2 (human liver cancer), A549 (lung carcinoma) and OKP-GS (renal cell carcinoma). The RPMI 1788 cells (B lymphocyte, human) were used as a control to evaluate the system toxicity of the studied compounds to normal cells. Sorafenib, nilotinib and lapatinib were utilized as reference standards for comparison.

[2] = system: HL-60 (promyelocytic leukemia); test: MTT cell proliferation assay, HL-60; assay type: cell-based; conditions: Homo sapiens, HL-60, 72 h of exposition, read-out: Anti-proliferative activity IC50, HL-60
Experimental: as §1, §2

[3] = system: MCF-7 (breast adenocarcinoma); test: MTT cell proliferation assay, MCF-7; assay type: cell-based; conditions: Homo sapiens, MCF7, MCF-7, 72 h of exposition, read-out: Anti-proliferative activity IC50, MCF-7
Experimental: as §1, §2

[4] = system: HepG2 (human liver cancer); test: MTT cell proliferation assay, HepG2; assay type: cell-based; conditions: Homo sapiens, HepG2, 72 h, HepG2, 72 h of exposition, read-out: Anti-proliferative activity IC50, HepG2
Experimental: as §1, §2

A549 (lung carcinoma) = test: MTT cell proliferation assay, A549; assay type: cell-based; conditions: Homo sapiens, A549, 72 h of exposition, read-out: Anti-proliferative activity IC50, A549
Experimental: as §1, §2

[5] = system: OKP-GS (renal cell carcinoma); test: MTT cell proliferation assay, OKP-GS; assay type: cell-based; conditions: 72 h of exposition, read-out: Anti-proliferative activity IC50, OKP-GS
Experimental: as §1, §2

[6] = system: RPMI 1788 cells (B lymphocyte, human); test: MTT cell proliferation assay, normal RPMI 1788 cells; assay type: cell-based; conditions: normal human lymphoblastoid cells RPMI 1788, 72 h of exposition, read-out: Anti-proliferative activity IC50, RPMI 1788
Experimental: as §1, §2

EGFR = target: T1, EGFR (Homo sapiens, UniProt P00533); test: ADP-Glo kinase assay, EGFR; assay type: biochemical
T1 construct: purchased Promega

HER2 = target: T2, HER2 (Homo sapiens, UniProt P04626); test: ADP-Glo kinase assay, HER2; assay type: biochemical
T2 construct: purchased Promega
T2 sequence (P04626 23-1255): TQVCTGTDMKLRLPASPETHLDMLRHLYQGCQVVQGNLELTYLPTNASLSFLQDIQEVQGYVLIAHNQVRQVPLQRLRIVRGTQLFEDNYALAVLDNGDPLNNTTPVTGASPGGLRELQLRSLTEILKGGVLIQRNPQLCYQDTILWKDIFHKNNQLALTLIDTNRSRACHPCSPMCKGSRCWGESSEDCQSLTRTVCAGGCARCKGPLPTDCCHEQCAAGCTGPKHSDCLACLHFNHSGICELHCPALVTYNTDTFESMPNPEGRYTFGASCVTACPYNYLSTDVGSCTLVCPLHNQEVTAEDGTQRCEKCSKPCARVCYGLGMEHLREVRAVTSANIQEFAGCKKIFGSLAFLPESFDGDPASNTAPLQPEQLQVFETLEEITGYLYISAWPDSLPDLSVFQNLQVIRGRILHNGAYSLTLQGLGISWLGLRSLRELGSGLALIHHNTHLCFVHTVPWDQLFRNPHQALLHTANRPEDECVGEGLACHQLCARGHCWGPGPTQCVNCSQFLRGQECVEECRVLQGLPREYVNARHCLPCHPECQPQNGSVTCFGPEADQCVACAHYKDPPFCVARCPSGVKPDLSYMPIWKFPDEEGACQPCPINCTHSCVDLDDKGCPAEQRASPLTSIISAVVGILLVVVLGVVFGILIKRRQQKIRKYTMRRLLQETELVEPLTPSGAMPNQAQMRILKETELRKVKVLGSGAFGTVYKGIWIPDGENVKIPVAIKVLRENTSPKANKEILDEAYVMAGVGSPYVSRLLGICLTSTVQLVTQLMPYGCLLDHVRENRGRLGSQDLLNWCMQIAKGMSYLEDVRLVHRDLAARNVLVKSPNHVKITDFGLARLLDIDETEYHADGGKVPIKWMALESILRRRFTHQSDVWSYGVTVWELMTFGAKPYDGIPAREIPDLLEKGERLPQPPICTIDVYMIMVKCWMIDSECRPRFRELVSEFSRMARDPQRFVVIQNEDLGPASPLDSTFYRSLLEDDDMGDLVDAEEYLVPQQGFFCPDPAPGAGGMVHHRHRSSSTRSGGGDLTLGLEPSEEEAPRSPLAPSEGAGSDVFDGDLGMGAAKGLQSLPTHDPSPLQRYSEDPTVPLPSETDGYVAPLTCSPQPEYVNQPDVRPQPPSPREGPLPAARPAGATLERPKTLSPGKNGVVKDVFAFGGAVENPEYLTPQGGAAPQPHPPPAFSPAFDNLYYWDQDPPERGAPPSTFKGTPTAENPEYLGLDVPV
Experimental: (§3) The ADP-Glo kinase assay (Promega, Madison, WI, USA) was used to screen compounds 5, 8–10, 14, 17, 19 and 24 for the tyrosine kinase (Kinase Selectivity Profiling System TK-1, Promega, Madison, WI, USA) and serine/threonine kinase (Kinase Selectivity Profiling System Other/CK-1, Promega, Madison, WI, USA) inhibition effects according to the manufacturer’s technical manual. The luminescence data were analyzed as described in our prior work.
(§4) The selectivity of the potential kinase inhibitor against a specific protein kinase or a specific family of kinases was investigated using the Kinase Selectivity Profiling System TK-1, Other/CK-1 and ADP-Glo™ Kinase assay kit (Promega, Madison, WI, USA).

HER4 = target: T3, HER4 (Homo sapiens, UniProt Q15303); test: ADP-Glo kinase assay, HER4; assay type: biochemical
T3 construct: purchased Promega
Experimental: as §3, §4

[7] = target: T4, IGF1R (insulin-like growth factor 1 receptor) (Homo sapiens, UniProt P08069); test: ADP-Glo kinase assay, IGF1R; assay type: biochemical
T4 construct: purchased Promega
T4 sequence (P08069 31-1367): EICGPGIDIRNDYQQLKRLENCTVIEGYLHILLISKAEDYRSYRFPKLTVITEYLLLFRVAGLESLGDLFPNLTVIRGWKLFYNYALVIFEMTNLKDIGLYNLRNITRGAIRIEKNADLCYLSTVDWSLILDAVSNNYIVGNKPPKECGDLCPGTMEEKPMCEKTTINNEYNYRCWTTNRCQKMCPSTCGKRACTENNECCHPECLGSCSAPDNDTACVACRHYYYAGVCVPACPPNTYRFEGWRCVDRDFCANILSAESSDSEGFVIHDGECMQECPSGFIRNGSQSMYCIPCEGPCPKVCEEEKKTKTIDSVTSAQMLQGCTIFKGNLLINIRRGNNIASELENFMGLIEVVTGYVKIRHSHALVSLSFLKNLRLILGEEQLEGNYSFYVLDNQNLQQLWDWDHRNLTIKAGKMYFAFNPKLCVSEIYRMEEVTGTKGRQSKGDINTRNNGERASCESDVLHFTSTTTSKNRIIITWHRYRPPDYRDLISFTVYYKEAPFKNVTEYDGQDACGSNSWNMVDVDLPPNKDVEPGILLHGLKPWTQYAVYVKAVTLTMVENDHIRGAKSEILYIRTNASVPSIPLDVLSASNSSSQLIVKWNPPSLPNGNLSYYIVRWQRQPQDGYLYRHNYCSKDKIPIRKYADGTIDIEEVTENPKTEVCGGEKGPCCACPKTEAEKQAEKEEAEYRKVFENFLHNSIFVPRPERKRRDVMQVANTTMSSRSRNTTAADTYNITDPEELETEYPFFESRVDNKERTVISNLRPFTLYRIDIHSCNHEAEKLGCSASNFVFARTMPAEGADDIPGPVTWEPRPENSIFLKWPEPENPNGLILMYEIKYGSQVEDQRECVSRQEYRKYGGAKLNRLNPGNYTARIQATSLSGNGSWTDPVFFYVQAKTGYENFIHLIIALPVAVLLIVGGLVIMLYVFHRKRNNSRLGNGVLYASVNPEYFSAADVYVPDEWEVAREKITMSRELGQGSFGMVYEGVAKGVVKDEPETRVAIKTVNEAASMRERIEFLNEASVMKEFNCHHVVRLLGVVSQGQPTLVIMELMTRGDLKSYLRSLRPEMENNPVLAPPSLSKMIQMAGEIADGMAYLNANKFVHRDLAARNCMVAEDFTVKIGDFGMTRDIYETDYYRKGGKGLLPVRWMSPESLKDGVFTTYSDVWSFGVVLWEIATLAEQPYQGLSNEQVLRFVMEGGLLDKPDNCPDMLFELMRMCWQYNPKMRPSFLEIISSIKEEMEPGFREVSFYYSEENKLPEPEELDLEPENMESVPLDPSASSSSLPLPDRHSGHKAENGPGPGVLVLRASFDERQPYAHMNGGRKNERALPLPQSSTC
Experimental: as §3, §4

InsR (insulin receptor) = target: T5, InsR (insulin receptor) (Homo sapiens, UniProt P06213); test: ADP-Glo kinase assay, InsR; assay type: biochemical
T5 construct: purchased Promega
T5 sequence (P06213 28-1382): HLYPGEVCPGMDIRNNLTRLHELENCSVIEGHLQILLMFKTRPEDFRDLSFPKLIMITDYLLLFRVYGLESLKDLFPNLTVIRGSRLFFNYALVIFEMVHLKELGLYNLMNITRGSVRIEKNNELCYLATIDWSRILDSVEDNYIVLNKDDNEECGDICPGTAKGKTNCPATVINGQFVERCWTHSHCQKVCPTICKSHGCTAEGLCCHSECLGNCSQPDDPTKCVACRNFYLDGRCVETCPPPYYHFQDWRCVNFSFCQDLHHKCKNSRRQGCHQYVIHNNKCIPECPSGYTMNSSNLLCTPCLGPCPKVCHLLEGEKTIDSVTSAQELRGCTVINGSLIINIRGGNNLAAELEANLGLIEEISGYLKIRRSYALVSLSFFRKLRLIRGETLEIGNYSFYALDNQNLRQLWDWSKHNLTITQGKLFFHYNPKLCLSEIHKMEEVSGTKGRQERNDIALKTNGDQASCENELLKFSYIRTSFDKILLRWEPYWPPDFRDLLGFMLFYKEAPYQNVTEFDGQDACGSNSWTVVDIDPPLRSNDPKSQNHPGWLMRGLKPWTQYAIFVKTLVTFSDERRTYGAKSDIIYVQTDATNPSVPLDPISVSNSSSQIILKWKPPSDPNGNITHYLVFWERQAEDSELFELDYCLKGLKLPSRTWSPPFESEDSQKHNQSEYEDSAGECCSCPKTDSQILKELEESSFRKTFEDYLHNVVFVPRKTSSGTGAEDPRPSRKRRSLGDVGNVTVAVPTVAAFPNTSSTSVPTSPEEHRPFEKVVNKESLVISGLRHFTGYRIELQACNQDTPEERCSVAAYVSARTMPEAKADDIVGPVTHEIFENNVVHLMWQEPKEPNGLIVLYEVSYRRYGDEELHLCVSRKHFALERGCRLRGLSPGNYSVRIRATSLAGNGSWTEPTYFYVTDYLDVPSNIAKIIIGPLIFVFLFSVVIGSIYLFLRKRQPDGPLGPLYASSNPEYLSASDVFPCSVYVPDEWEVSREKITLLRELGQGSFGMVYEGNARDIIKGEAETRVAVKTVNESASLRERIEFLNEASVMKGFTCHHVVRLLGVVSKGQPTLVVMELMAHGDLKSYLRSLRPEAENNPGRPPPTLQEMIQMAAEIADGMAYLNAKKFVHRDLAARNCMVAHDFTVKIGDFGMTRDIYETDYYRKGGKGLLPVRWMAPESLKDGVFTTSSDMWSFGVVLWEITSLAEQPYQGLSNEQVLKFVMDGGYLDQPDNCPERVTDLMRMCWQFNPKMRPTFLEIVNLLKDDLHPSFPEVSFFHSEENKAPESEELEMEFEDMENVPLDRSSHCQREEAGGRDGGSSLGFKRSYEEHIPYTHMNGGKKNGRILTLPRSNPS
Experimental: as §3, §4

KDR (VEGFR-2) = target: T6, KDR (VEGFR-2) (Homo sapiens, UniProt P35968); test: ADP-Glo kinase assay, KDR; assay type: biochemical
T6 construct: purchased Promega

PDGFRα = target: T7, PDGFRα (Homo sapiens, UniProt P16234); test: ADP-Glo kinase assay, PDGFRα; assay type: biochemical
T7 construct: purchased Promega
Experimental: as §3, §4

PDGFRβ = target: T8, PDGFRβ (Homo sapiens, UniProt P09619); test: ADP-Glo kinase assay, PDGFRβ; assay type: biochemical
T8 construct: purchased Promega
T8 sequence (P09619 33-1106): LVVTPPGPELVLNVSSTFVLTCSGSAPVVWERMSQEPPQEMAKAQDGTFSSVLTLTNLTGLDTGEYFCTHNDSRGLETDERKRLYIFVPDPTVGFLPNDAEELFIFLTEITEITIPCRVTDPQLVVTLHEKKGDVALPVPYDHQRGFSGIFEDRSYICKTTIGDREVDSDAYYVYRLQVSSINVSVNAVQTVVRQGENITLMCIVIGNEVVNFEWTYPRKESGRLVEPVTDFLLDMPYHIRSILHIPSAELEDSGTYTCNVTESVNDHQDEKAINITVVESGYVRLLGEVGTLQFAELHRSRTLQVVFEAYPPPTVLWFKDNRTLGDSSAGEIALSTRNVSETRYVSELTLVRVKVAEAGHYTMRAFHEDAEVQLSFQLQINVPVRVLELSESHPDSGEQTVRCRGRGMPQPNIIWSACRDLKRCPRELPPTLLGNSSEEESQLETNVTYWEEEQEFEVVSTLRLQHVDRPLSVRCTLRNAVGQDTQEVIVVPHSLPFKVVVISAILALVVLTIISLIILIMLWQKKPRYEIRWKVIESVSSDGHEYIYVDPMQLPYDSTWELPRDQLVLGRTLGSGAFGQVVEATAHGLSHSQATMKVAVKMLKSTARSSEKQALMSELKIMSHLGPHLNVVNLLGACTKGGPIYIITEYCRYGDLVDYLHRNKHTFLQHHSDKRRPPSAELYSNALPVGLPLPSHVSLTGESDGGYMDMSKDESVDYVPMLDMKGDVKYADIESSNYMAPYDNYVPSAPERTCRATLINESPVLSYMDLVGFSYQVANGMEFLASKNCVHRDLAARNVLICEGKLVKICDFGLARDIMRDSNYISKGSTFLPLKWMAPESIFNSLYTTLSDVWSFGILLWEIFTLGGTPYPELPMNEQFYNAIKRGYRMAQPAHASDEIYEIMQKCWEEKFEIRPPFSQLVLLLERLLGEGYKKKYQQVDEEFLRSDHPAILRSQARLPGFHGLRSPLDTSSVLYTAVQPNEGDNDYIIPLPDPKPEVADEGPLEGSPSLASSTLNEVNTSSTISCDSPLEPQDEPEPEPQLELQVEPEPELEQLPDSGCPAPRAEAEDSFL
Experimental: as §3, §4

Aurora A = target: T9, Aurora A (Homo sapiens, UniProt O14965); test: ADP-Glo kinase assay, Aurora A; assay type: biochemical
T9 construct: purchased Promega
T9 sequence (O14965 1-403): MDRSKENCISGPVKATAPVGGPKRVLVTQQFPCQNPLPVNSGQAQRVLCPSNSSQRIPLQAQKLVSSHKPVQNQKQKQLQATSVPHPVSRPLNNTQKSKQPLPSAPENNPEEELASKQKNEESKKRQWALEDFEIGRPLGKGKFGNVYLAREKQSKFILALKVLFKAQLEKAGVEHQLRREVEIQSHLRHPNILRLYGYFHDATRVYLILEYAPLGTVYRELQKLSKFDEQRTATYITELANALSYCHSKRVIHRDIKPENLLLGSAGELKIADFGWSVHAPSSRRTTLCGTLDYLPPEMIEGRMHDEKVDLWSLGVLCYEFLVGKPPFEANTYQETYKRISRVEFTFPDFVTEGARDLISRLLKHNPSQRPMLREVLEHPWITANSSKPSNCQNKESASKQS
Experimental: as §3, §4

Aurora B = target: T10, Aurora B (Homo sapiens, UniProt Q96GD4); test: ADP-Glo kinase assay, Aurora B; assay type: biochemical
T10 construct: purchased Promega
Experimental: as §3, §4

K562 cells [8] = test: Cell cycle analysis (propidium iodide, flow cytometry); assay type: cell-based; conditions: 48 h
Experimental: Tumor cells were seeded on a 6-well plate at a density of 400,000 per well for K562. Test compounds 5, 14 and 15 were added at concentrations of 1, 5 and 10 μM in duplicate for 48 h. The methodology and analysis of the obtained data were performed as described in our prior work.
As shown above, compounds 5, 14 and 15 had significant antiproliferative activities, which is why their influences on the cell cycle and apoptosis level were determined, with the aim of understanding whether these effects are cytostatic or cytotoxic. In the cell cycle experiments, K562 cells were used. […] For the determination of changes in the distribution of cells in the phases of the cell cycle, the widely employed method of staining the cells with propidium iodide was used.

K562 cells [9] = test: Annexin V-FITC/PI apoptosis assay; assay type: cell-based; conditions: 48 h
Experimental: K562 tumor cells were plated on a 6-well plate at a density of 400,000 per well. Test compounds 5, 14 and 15 were added at concentrations of 1, 5 and 10 μM in duplicate for 48 h. The methodology and analysis of the obtained data were performed as described in our prior work.
The effects of compounds 5, 14 and 15 on cell apoptosis were examined using the Annexin V-FITC Kit (Beckman Coulter, Brea, CA, USA) according to the protocols provided. The Annexin V-FITC Kit is an apoptosis detection kit based on the binding properties of annexin V to phosphatidylserine (PS) and on the DNA intercalating capability of propidium iodide (PI). K562 cells were treated with compound 5, 14 and 15 at 1, 5 and 10 μM for 48 h, after which annexin V/PI binding was measured by flow cytometry.

K562 cell line = test: ROS determination (DCFH-DA, flow cytometry); assay type: cell-based; conditions: 48 h
Experimental: The redox status was assessed using the K562 cell line. […] Then, the cells were washed to remove the 2′,7′-dichlorodihydrofluorescein diacetate by centrifugation at 1000 rpm for 5 min. The measurements were conducted using a Cytomics FC500 Beckman Coulter flow cytometer (FL1 channel for DCF).

SMILES	IC50 [1] [µM]	IC50 [2] [µM]	IC50 [3] [µM]	IC50 [4] [µM]	IC50 (A549 (lung carcinoma)) [µM]	IC50 [5] [µM]	IC50 [6] [µM]	inhibition at 10 µM (EGFR) [%]	inhibition at 10 µM (HER2) [%]	inhibition at 10 µM (HER4) [%]	inhibition at 10 µM [7] [%]	inhibition at 10 µM (InsR (insulin receptor)) [%]	inhibition at 10 µM (KDR (VEGFR-2)) [%]	inhibition at 10 µM (PDGFRα) [%]	inhibition at 10 µM (PDGFRβ) [%]	inhibition at 10 µM (Aurora A) [%]	inhibition at 10 µM (Aurora B) [%]	melting point [°C]	further results
O=C(Nc1cccc(C(F)(F)F)c1)c1cccc(C(=O)N2CCN(C(=O)c3cccc(F)c3)CC2)c1 [Compound 9, 3-(4-(3-Fluorobenzoyl)piperazine-1-carbonyl)-N-(3-(trifluoromethyl)phenyl)benzamide]	21 ± 0.59	21.9 ± 1.59	26.3 ± 3.71	33.3 ± 3.45	> 50	> 50	26.3 ± 1.88	90	64	37	0	0	33	20	24	0	0	97 to 101	–
O=C(Nc1cccc(C(F)(F)F)c1)c1cccc(C(=O)N2CCN(C(=O)c3ccccc3F)CC2)c1 [Compound 8, 3-(4-(2-Fluorobenzoyl)piperazine-1-carbonyl)-N-(3-(trifluoromethyl)phenyl)benzamide]	18.3 ± 1.15	18.2 ± 1.02	24.7 ± 5.95	35.49 ± 0.34	> 50	> 50	24.9 ± 1.17	14	0	0	0	6	34	0	0	0	0	145 to 147	–
COc1ccc(C(=O)N2CCN(C(=O)c3ccc(C(=O)Nc4cccc(C(F)(F)F)c4)cc3)CC2)cc1 [Compound 19, 4-(4-(4-Methoxybenzoyl)piperazine-1-carbonyl)-N-(3-(trifluoromethyl)phenyl)benzamide]	> 50	> 50	> 50	> 50	> 50	> 50	> 50	4	39	2	0	17	16	19	20	–	–	202 to 205	–
CNC(=O)c1cc(Oc2ccc(NC(=O)Nc3ccc(Cl)c(C(F)(F)F)c3)cc2)ccn1 [Sorafenib, reference compound]	2.44 ± 0.21	3.37 ± 0.42	8.62 ± 2.24	5.01 ± 0.14	12.5 ± 1.64	7.17 ± 0.5	3.48 ± 0.39	–	–	–	–	–	–	100	100	–	–	–	Apoptosis, % (cell cycle analysis) (K562 cells [8]; K562, 1 µM): 22.60%; G1, % (K562 cells [8]; K562, 1 µM): 36.50%; S, % (K562 cells [8]; K562, 1 µM): 7.72%; Apoptosis, % (cell cycle analysis) (K562 cells [8]; K562, 5 µM): 44.20%; G1, % (K562 cells [8]; K562, 5 µM): 33.87%; S, % (K562 cells [8]; K562, 5 µM): 30.14%; normal live cells (living cells) (K562 cells [9]; K562, 1 µM): 84.11%; early apoptotic cells (K562 cells [9]; K562, 5 µM): 36.2%; late apoptotic cells (K562 cells [9]; K562, 5 µM): 19.57%; normal live cells (living cells) (K562 cells [9]; K562, 5 µM): 42.32%; necrotic cells (K562 cells [9]; K562, 10 µM): 5.73%; normal live cells (living cells) (K562 cells [9]; K562, 10 µM): 26.41%; ROS Level, % of Control (K562 cell line; K562, 5 µM): 69.20 % of Control; ROS Level, % of Control (K562 cell line; K562, 10 µM): 79.03 % of Control; ROS Level, % of Control (K562 cell line; K562, 20 µM): 71.59 % of Control
CCN(CC)CCNC(=O)c1c(C)[nH]c(/C=C2\C(=O)Nc3ccc(F)cc32)c1C [Sunit., sunitinib, reference compound]	–	–	–	–	–	–	–	–	–	–	–	–	–	–	–	68	90	–	–
Cc1cn(-c2cc(NC(=O)c3ccc(C(=O)Nc4cc([N+](=O)[O-])ccc4C)cc3)cc(C(F)(F)F)c2)cn1 [Compound 24, N1-(3-(4-methyl-1H-imidazol-1-yl)-5-(trifluoromethyl)phenyl)-N4-(2-methyl-5-nitrophenyl)terephthalamide]	17 ± 0.2	26.4 ± 3.35	15.5 ± 1.16	> 50	> 50	> 50	36.5 ± 0.86	2	49	3	0	0	0	0	0	0	3	269 to 270	–
